{
  "source": "patent US7538220B2",
  "about": "“Intermediates in the preparation of homocamptothecin analogs” (University of Pittsburgh - of the Commonwealth System of …, priority 1999, dated 2009)",
  "key": {"[1]": {"test": "Lactone ring stability in whole human blood by HPLC", "conditions": "for Percent Lactone in Human Blood after 3 Hours of Incubation: pH 7.4, 37° C. (Table 4)", "method": "All experiments were conducted at pH 7.4 and 37° C.\n(§1) HPLC solvents were from Fisher Scientific."}, "[2]": {"conditions": "PBS solution containing HSA; cited from earlier work"}, "[3]": {"conditions": "cited from earlier work"}, "[4]": {"test": "Lactone ring stability in mouse blood by HPLC", "conditions": "for Ratio of Lactone Level Mouse/Human: blood, 3 hours of incubation; for Percent Lactone in Mouse Blood after 3 Hours of Incubation: pH 7.4, 37° C.", "description": "The hydrolysis kinetics of camptothecins in the presence of different blood components were determined by a quantitative C18 reversed-phase high-performance liquid chromatography (HPLC) assay modified from methodologies described previously in the literature cited above. The preparation of whole blood and fractionated blood samples was carried out as described previously. Crystallized HSA of high purity (>97%) from Sigma Chemical (St. Louis, Mo.) was used. HSA stock solutions were prepared in PBS buffer with a final pH of 7.40±0.05. HSA concentrations were determined by UV absorbance at 278 nm using an extinction coefficient of 39,800 M^−1 cm^−1 (Porter, 1992). All other agents were reagent grade and were used without further purification. High purity water provided by a Milli-Q UV PLUS purification system (Bedford, Mass.) was utilized in all experiments. HPLC solvents were from Fisher Scientific. Human plasma and red blood cells were obtained from Central Kentucky Blood Center. […] Blood from mice was collected in heparinized tubes and stored at 5-10° C. until use.\nHPLC assays were performed either on a Waters Alliance 2690 HPLC system equipped with a temperature-controlled autosampler and Waters 474 scanning fluorescence detector. A second HPLC system was composed of a Waters HPLC system composed of 501 HPLC pumps, 717 Plus temperature-controlled autosampler and 470 scanning fluorescence detector. The HPLC assay procedures used for the homosilatecans are summarized below. Solvent A consisted of acetonitrile and Solvent B was 2% triethylammonium acetate, pH 5.5, with a flow rate of 1 ml/min. For DB-38 an isocratic elution was used: 33% Solvent A; 67% Solvent B; λex:345 nm and λem:518 nm. For DB-81 an isocratic elution was used: 56% Solvent A; 44% Solvent B; and λex:375 nm and λem:444 nm. For DB-90 an isocratic elution was used: 41% Solvent A; 59% Solvent B; λex:412 nm and λem:526 nm. For DB-91 an isocratic elution of 42% Solvent A, 58% Solvent B, and λex:392 nm and λem:562 nm.\nTo determine drug stability in whole blood, whole blood was incubated at 37° C. for 30 min and pH determined. Blood pH was adjusted to 7.4+/−0.5 using either 0.1 M KOH or 0.1 M HCl. Blood samples were incubated at 37° C. for 30 min and pH remeasured to ensure that it is within the range before an individual assay was started. Aliquots of blood (2 ml each) were removed and placed in three disposable glass test tubes and the tubes were incubated at 37° C. […] Incubation at 37° C. was continued and 150 μl aliquots were removed at different time points and added to 600 μl of cold methanol (−20° C.) in an eppendorf tube. The tube was then vortexed for 10 sec and centrifuged in a table top microcentrifuge at 8000 rpm for 45 sec. The Supernatant was removed and placed in an autosampler vial and the vial quickly added to the autosampler maintained at 4° C. The sample was analyzed immediately on the HPLC set-up. The data analysis was as described for the drug in PBS only samples."}, "[5]": {"conditions": "whole human blood; cited from earlier work"}, "[6]": {"test": "Fluorescence anisotropy titration, equilibrium binding to DMPC small unilamellar vesicles", "assay_type": "physicochemical", "conditions": "electroneutral DMPC vesicles, PBS pH 7.4, 37° C.; K values subject to 10% uncertainty", "method": "(§2) As a consequence of the brilliant fluorescence emissions from the newly synthesized homosilatecans (a summary of the spectral parameters can be found in Table 1), the lipid bilayer adsorption isotherms summarized in FIG. 4 were relatively free from any background signal. The method of fluorescence anisotropy titration was used to construct the adsorption isotherms. The experiments were conducted at drug concentrations of 1 μM in PBS buffer (37° C.). […] Because of the potential of the lactone ring of the homosilatecans and camptothecins to hydrolyze in PBS, anisotropy values at each lipid concentration were determined immediately (approx. 1 min.) following the addition of the lactone form of each agent to the liposome suspension as to minimize any possibility of conversion to the carboxylate form. Using drug concentrations of 1 μM and long pass filters to isolate emitted light from background signal (that is, scattered exciting light and extraneous fluorescence signal resulting from the possible presence of impurities), signal levels from drugs dissolved in PBS buffer were typically 99.97% in the absence of membrane and greater than 98% in the presence of membrane. Adsorption isotherms were used to determine overall association constants for the homosilatecan, silatecan, and camptothecin drugs. Overall association constants are defined as: K=[AB]/[AF][L] where [AB] represents the concentration of bound drug, [AF] represents the concentration of free drug, and [L] represents the total lipid concentration in the vesicle suspension. This equation is valid when the concentration of free lipid is approximately equal to the concentration of total lipid (that is, the concentration of free lipid is in significant excess over the concentration of bound drug). Provided this condition is satisfied, K may be determined from the inverse of the slope of a double reciprocal plot. In such a double reciprocal plot, 1/fraction of the total drug bound is plotted vs. 1/lipid concentration, with a y-intercept value of 1 (for a system displaying binding site homogeneity). Such double-reciprocal plots for the associations of the new homosilatecans analogs (both lactone and carboxylate forms) with DMPC and DMPG small unilamellar vesicle (SUV) preparations were linear with good correlation coefficients.\n(§3) The studies summarized in Table 2 examine the structural basis of homosilatecan associations for lipid bilayers. Two types of membranes were included in these studies which were conducted under near physiological conditions of pH and temperature; these membranes include fluid-phase and electroneutral L-α-dimyristoylphosphatidyl-choline (DMPC); and fluid-phase and negatively-charged L-α-dimyristoylphosphatidylglycerol (DMPG). DMPC and DMPG have identical chain length but the charges on their head groups differ.\n(§4) In the studies of Table 2, binding isotherms were constructed using the method of fluorescence anisotropy titration as discussed above, and K values were determined from the slopes of the double-reciprocal plots. The K values are subject to 10% uncertainty. One of the most striking features of the data contained in Table 2 is the strong modulation which can be achieved through the creation of A,B,E-ring modified camptothecins (for example, the homosilatecans known as DB-38, DB-90, and DB-91) or B,E-ring modified camptothecins (for example, the homosilatecan known as DB-81). Homosilatecans containing either a sole substitution at the 7 position or dual substitution at the 7 and 10 positions have been created and found to display very high lipophilicities. Included in Table 2 are camptothecin compounds (topotecan and camptothecin). For DB-81, the lipophilicity for DMPC membranes relative to corresponding value for topotecan increases over 1,400-fold. Data for these agents were included to show the highly lipophilic nature of the new homocamptothecins relative to compounds such as topotecan and camptothecin. […]"}, "[7]": {"test": "Fluorescence anisotropy titration, equilibrium binding to DMPG small unilamellar vesicles", "assay_type": "physicochemical", "conditions": "negatively charged DMPG vesicles, PBS pH 7.4, 37° C.; K values subject to 10% uncertainty", "method": "as §2, §3, §4"}, "[8]": {"test": "Lactone ring stability in PBS by HPLC", "assay_type": "physicochemical", "conditions": "PBS pH 7.4, 3 hours, 37° C., 1 μM", "method": "FIG. 12 contrasts the improved stabilities of four novel homosilatecans of the present invention with their corresponding silatecan structure containing the α-hydroxylactone functionality. All the experiments of FIG. 12 were conducted in PBS at 37° C.\nas §1\nTo determine the stabilities of homosilatecans in PBS, an aliquot of each of the homosilatecans in DMSO was added to phosphate buffered saline (PBS), pH 7.4 in a HPLC autosampler vial maintained at 37° C. in a water bath to result in final drug concentration of 1 μM. The drug-containing vial was quickly transferred to the autosampler maintained at 37° C. and aliquots analyzed at various time points. All the determinations were done in triplicate. The data was collected and analyzed using Waters Millenium software. The fraction of lactone was calculated using the peak area of lactone and carboxylate peak and using the lactone/carboxylate ratio."}, "[9]": {"tested_on": "MDA-MB-435 tumorigenic metastatic human breast cancer cells", "test": "Cytotoxicity, sulphorrhodamine B (SRB) assay", "assay_type": "cell-based", "conditions": "MDA-MB-435, 72 hr exposure, SRB assay, without HSA, read-out: IC50 (w/o HSA)", "method": "Cytotoxicity measurements were conducted using MDA-MB-435 tumorigenic human breast cancer cells. The cells were exposed to a range of drug concentrations for 72 hr exposure periods and then viability was assessed using a sulphorrhodamine B (SRB) assay. The SRB measures the total protein levels in the living cells. Proteins from dead cells are lysed and removed in the washing step before TCA fixation. However, it is possible that cells in the early stage of death still have their membrane integrity and therefore retain the protein contents inside. As a result, the optical density at 490 nm can sometimes be overestimated and the cytotoxicity underestimated. […] The SRB assay is now a well regarded assay and was recently approved by NCl as a standard assay for anticancer drug screening. […] Each IC50 value represents the average of three separate trials with each dosage level studied in triplicate."}, "[10]": {"biological_target": "T1, human serum albumin (HSA) (Homo sapiens, UniProt P02768)", "T1 sequence (P02768 25-609)": "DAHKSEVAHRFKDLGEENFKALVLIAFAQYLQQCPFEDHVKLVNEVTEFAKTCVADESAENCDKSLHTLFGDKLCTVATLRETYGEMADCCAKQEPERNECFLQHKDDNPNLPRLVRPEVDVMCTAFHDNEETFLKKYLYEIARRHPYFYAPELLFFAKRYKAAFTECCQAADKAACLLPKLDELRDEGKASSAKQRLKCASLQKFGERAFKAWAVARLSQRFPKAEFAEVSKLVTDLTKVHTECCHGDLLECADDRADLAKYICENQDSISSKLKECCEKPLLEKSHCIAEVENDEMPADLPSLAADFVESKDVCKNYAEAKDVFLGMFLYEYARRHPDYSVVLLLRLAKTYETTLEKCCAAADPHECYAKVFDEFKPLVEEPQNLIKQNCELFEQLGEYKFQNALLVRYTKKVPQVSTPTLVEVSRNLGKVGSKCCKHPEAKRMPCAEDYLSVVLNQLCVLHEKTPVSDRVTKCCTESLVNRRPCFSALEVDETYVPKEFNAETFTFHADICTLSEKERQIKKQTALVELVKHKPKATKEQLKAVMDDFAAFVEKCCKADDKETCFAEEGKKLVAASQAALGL", "test": "Binding of camptothecin lactone and carboxylate forms to human serum albumin, frequency-domain fluorescence lifetime spectroscopy"}, "[11]": {"conditions": "previously observed, Burke et al. 1993; cited from earlier work"}, "[12]": {"biological_target": "T1, human serum albumin (HSA)", "conditions": "PBS pH 7.4; cited from earlier work"}, "[13]": {"conditions": "whole human blood, 3 hours incubation, pH 7.4, 37° C., 1 μM"}},
  "note": "Values joined by “and” are separate entries in the source; they are usually repeats but may differ in a detail not shown here. Identical values can stand only once. Like-named read-outs stand apart in the source and are kept apart here.",
  "data": [
    {"smiles": "CC[C@@]1(O)C(=O)OCc2c1cc1n(c2=O)Cc2cc3c(N)cccc3nc2-1", "note": "[9-Aminocamptothecin, 9-aminocamptothecin]", "values": [
      {"measurement": "Percent Lactone in Human Blood after 3 Hours of Incubation", "setting": "[1]", "result": 0.4, "unit": "%"},
      {"measurement": "% Lactone", "setting": "[1]; [13]", "result": "approx. 0.3%"},
      {"measurement": "extent of hydrolysis", "setting": "[2]", "result": "> 99", "unit": "%"},
      {"measurement": "percentage of lactone at equilibrium", "setting": "[3]; human plasma, pH 7.4, 37° C.", "result": 0.2, "unit": "%"},
      {"measurement": "fraction converted to carboxylate", "setting": "[3]; plasma", "result": "> 99.5", "unit": "%"},
      {"measurement": "Ratio of Lactone Level Mouse/Human", "setting": "[4]", "result": 100},
      {"measurement": "Percent Lactone in Mouse Blood after 3 Hours of Incubation", "setting": "[4]", "result": 38, "unit": "%"}
    ]},
    {"smiles": "CCc1c2c(nc3ccc(OC(=O)N4CCC(N5CCCCC5)CC4)cc13)-c1cc3c(c(=O)n1C2)COC(=O)[C@]3(O)CC", "note": "[CPT-11]", "values": [
      {"measurement": "lactone level at equilibrium relative to 9-aminocamptothecin", "setting": "[1]; whole human blood", "result": "approximately 40 fold"},
      {"measurement": "% Lactone", "setting": "[1]; [13]", "result": "approx. 21.0%"},
      {"measurement": "percentage of lactone at equilibrium", "setting": "[5]", "result": 21.0, "unit": "%"}
    ]},
    {"smiles": "CC[C@@]1(O)C(=O)OCc2c1cc1n(c2=O)Cc2cc3ccccc3nc2-1", "note": "[Camptothecin]", "values": [
      {"measurement": "KDMPC overall association constant", "setting": "[6]", "result": 100, "unit": "M⁻¹"},
      {"measurement": "KDMPG overall association constant", "setting": "[7]", "result": 100, "unit": "M⁻¹"},
      {"measurement": "% Lactone", "setting": "[8]", "result": "approximately 12%"},
      {"measurement": "Percent Lactone in Human Blood after 3 Hours of Incubation", "setting": "[1]", "result": 7, "unit": "%"},
      {"measurement": "lactone level at equilibrium relative to 9-aminocamptothecin", "setting": "[1]; whole human blood", "result": "approximately 10 fold"},
      {"measurement": "% Lactone", "setting": "[1]; [13]", "result": "approx. 6%"},
      {"measurement": "IC50", "setting": "[9]", "result": "12 ± 4", "unit": "nM"},
      {"measurement": "HSA binding preference for the carboxylate relative to the lactone", "setting": "[10]", "result": 200, "unit": "fold"},
      {"measurement": "K, HSA binding of the carboxylate form", "setting": "[10]; carboxylate form", "result": "1.2e+06", "unit": "M⁻¹"},
      {"measurement": "K, HSA binding of the lactone form", "setting": "[10]; lactone form", "result": "≈ 5.5×10^3 M^−1"},
      {"measurement": "decrease in affinity for DMPC upon opening of the lactone ring", "setting": "[11]", "result": 3, "unit": "fold"},
      {"measurement": "HSA binding affinity of carboxylate form relative to lactone form", "setting": "[12]", "result": "200 fold and > 100 fold"},
      {"measurement": "percentage of lactone at equilibrium", "setting": "[3]; human plasma, pH 7.4, 37° C.", "result": 0.2, "unit": "%"},
      {"measurement": "t1/2 of lactone ring opening", "setting": "[3]; human plasma, pH 7.4, 37° C.", "result": 11, "unit": "min"},
      {"measurement": "t1/2 of lactone ring opening", "setting": "[5]", "result": 22, "unit": "min"},
      {"measurement": "Ratio of Lactone Level Mouse/Human", "setting": "[4]", "result": 3},
      {"measurement": "Percent Lactone in Mouse Blood after 3 Hours of Incubation", "setting": "[4]", "result": 20, "unit": "%"}
    ]},
    {"smiles": "CC[C@@]1(O)C(=O)OCc2c1cc1n(c2=O)Cc2c-1nc1ccc(O)cc1c2[Si](C)(C)C(C)(C)C", "note": "[DB-67, reference compound]", "values": [
      {"measurement": "KDMPC overall association constant", "setting": "[6]", "result": "2,500 M^−1"}
    ]},
    {"smiles": "CCC(O)(CC(=O)O)c1cc2n(c(=O)c1CO)Cc1c-2nc2ccc(N)cc2c1[Si](C)(C)C(C)(C)C", "note": "(stereo not drawn) [DB-90 carboxylate form, carboxylate form of 7-t-butyl-dimethylsilyl-10-aminohomocamptothecin]", "values": [
      {"measurement": "KDMPC overall association constant", "setting": "[6]", "result": 770, "unit": "M⁻¹"},
      {"measurement": "KDMPG overall association constant", "setting": "[7]", "result": 80, "unit": "M⁻¹"}
    ]},
    {"smiles": "CCC(O)(CC(=O)O)c1cc2n(c(=O)c1CO)Cc1c-2nc2ccc(O)cc2c1[Si](C)(C)C(C)(C)C", "note": "(stereo not drawn) [DB-91 carboxylate form, ring-opened or carboxylate form of 7-t-butyldimethylsilyl-10-hydroxyhomocamptothecin]", "values": [
      {"measurement": "KDMPC overall association constant", "setting": "[6]", "result": 700, "unit": "M⁻¹"},
      {"measurement": "KDMPG overall association constant", "setting": "[7]", "result": 100, "unit": "M⁻¹"}
    ]},
    {"smiles": "CCc1c2c(nc3ccc(O)cc13)-c1cc3c(c(=O)n1C2)COC(=O)[C@]3(O)CC", "note": "[SN-38, 7-ethyl-10-hydroxycamptothecin]", "values": [
      {"measurement": "KDMPC overall association constant", "setting": "[6]", "result": 300, "unit": "M⁻¹"},
      {"measurement": "lactone level at equilibrium relative to 9-aminocamptothecin", "setting": "[1]; whole human blood", "result": "approximately 40 fold"},
      {"measurement": "% Lactone", "setting": "[1]; [13]", "result": "approx. 30%"},
      {"measurement": "percentage of lactone at equilibrium", "setting": "[5]", "result": 19.5, "unit": "%"}
    ]},
    {"smiles": "CC[C@@]1(O)C(=O)OCc2c1cc1n(c2=O)Cc2cc3c(CN(C)C)c(O)ccc3nc2-1", "note": "[Topotecan, reference compound]", "values": [
      {"measurement": "KDMPC overall association constant", "setting": "[6]", "result": 10, "unit": "M⁻¹"},
      {"measurement": "KDMPG overall association constant", "setting": "[7]", "result": 50, "unit": "M⁻¹"},
      {"measurement": "% Lactone", "setting": "[8]", "result": "approximately 12%"},
      {"measurement": "lactone level at equilibrium relative to 9-aminocamptothecin", "setting": "[1]; male, human, 1 μM, pH 7.4", "result": 20, "unit": "fold"},
      {"measurement": "% Lactone", "setting": "[1]; male, human, 3 h, 1 μM, pH 7.4", "result": "approx. 15%"},
      {"measurement": "percentage of lactone at equilibrium", "setting": "[5]", "result": 11.9, "unit": "%"}
    ]}
  ]
}
